Measured values as given in ChEMBL document CHEMBL4680122, “Design, synthesis and biological evaluation of new Axl kinase inhibitors containing 1,3,4-oxadiazole acetamide moiety as novel linker” (Eur J Med Chem, 2020).

Experiments:
[1] = test system: H1975/Gefitinib; test: cells; details: Homo sapiens, 72 h
[2] = target: Aurora kinase B (Homo sapiens) (UniProt Q96GD4); test: Inhibition of Aurora-B (unknown origin) at 200 nM relative to control
[3] = target: Vascular endothelial growth factor receptor 3 (Homo sapiens) (UniProt P35916); test: Inhibition of Flt4 (unknown origin) at 200 nM relative to control
Sequence of Vascular endothelial growth factor receptor 3 (Homo sapiens) (P35916 whole entry): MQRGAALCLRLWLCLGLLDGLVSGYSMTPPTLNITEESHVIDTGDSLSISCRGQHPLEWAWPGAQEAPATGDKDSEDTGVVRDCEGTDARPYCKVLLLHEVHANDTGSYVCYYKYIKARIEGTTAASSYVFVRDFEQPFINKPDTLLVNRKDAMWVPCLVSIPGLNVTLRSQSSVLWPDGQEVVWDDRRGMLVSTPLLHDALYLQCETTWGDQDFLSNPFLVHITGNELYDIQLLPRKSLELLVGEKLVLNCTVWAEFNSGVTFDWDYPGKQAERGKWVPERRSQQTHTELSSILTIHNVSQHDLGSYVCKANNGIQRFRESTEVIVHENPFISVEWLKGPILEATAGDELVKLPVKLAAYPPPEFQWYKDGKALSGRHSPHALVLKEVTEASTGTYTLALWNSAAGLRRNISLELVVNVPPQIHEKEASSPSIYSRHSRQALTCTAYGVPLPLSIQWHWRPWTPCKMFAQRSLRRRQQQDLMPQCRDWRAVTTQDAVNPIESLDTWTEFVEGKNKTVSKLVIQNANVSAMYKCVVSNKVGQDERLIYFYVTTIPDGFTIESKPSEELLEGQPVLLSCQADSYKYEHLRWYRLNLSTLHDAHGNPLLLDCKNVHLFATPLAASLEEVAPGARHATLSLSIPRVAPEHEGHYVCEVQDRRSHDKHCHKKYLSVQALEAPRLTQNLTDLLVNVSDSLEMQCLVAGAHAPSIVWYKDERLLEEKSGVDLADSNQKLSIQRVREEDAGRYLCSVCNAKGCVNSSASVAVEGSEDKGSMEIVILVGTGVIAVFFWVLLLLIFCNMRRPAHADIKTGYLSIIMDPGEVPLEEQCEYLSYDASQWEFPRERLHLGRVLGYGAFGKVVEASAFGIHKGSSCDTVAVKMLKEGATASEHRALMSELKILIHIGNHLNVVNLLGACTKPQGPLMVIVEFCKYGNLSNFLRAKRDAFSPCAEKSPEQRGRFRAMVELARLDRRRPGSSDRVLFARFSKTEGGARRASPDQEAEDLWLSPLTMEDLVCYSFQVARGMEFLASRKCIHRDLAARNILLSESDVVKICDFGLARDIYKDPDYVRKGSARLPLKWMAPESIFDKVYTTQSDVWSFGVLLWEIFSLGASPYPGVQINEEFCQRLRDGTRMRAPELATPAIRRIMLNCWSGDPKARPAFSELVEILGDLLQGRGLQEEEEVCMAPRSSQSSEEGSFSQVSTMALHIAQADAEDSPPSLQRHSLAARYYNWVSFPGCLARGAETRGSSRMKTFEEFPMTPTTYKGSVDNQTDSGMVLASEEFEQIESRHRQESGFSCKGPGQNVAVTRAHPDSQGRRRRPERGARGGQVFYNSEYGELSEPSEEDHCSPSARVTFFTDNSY

[4] = test system: A549; test: cells; details: Homo sapiens, A549, 72 h
Description: Antiproliferative activity against human A549 cells measured after 72 hrs by MTT assay

[5] = test system: MCF7; test: Potency index, ratio of foretinib IC50 to test compound IC50 for antiproliferative activity against human MCF7 cells; format: functional
[6] = test system: NCI-H1975; test: Antiproliferative activity against human NCI-H1975 cells measured after 72 hrs by MTT assay; format: functional, cell-based; details: NCI-H1975, 72 h
[7] = test system: PC-3; test: cells; details: Homo sapiens, PC-3, 72 h
Description: Antiproliferative activity against human PC-3 cells measured after 72 hrs by MTT assay

[8] = test system: HT-29; test: Potency index, ratio of foretinib IC50 to test compound IC50 for antiproliferative activity against human HT-29 cells; format: functional
[9] = target: Platelet-derived growth factor receptor beta (Homo sapiens, UniProt P09619); test: Inhibition of human His-tagged PDGFRB cytoplasmic domain expressed in baculovirus expression system using peptide substrate measured after 1 hr by mobility shift assay
Sequence of Platelet-derived growth factor receptor beta (P09619 whole entry, the tested form may be a part): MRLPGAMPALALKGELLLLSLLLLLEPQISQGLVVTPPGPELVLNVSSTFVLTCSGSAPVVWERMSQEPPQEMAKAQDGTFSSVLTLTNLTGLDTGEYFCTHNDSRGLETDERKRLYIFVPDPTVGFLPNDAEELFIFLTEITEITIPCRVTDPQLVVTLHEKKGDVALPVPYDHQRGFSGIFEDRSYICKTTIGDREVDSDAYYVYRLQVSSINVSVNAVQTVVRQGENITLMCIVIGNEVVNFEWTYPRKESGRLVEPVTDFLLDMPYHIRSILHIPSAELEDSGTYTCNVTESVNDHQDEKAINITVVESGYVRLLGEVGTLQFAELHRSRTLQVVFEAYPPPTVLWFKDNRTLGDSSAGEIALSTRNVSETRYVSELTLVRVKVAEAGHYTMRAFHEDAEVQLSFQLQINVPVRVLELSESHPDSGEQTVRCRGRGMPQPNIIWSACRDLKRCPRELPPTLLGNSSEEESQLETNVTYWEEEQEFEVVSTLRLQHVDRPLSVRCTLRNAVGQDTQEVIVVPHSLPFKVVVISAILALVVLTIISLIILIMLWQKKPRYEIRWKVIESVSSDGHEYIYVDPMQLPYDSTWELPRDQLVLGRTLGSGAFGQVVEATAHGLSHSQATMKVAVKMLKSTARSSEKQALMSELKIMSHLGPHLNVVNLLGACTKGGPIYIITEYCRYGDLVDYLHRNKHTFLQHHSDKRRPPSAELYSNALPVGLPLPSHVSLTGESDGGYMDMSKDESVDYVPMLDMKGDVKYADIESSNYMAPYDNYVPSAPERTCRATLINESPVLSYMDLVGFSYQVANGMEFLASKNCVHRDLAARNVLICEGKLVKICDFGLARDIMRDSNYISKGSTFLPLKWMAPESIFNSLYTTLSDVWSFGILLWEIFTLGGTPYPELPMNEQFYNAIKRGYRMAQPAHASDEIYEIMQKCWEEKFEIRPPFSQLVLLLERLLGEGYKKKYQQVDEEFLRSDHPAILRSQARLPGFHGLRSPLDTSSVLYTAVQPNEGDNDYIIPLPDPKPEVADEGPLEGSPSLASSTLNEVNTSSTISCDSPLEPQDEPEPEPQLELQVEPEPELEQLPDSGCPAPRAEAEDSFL

[10] = target: T1, Tyrosine-protein kinase receptor TYRO3 (Homo sapiens, UniProt Q06418); test: Inhibition of Tyro3 (unknown origin)
T1 sequence (Q06418 whole entry): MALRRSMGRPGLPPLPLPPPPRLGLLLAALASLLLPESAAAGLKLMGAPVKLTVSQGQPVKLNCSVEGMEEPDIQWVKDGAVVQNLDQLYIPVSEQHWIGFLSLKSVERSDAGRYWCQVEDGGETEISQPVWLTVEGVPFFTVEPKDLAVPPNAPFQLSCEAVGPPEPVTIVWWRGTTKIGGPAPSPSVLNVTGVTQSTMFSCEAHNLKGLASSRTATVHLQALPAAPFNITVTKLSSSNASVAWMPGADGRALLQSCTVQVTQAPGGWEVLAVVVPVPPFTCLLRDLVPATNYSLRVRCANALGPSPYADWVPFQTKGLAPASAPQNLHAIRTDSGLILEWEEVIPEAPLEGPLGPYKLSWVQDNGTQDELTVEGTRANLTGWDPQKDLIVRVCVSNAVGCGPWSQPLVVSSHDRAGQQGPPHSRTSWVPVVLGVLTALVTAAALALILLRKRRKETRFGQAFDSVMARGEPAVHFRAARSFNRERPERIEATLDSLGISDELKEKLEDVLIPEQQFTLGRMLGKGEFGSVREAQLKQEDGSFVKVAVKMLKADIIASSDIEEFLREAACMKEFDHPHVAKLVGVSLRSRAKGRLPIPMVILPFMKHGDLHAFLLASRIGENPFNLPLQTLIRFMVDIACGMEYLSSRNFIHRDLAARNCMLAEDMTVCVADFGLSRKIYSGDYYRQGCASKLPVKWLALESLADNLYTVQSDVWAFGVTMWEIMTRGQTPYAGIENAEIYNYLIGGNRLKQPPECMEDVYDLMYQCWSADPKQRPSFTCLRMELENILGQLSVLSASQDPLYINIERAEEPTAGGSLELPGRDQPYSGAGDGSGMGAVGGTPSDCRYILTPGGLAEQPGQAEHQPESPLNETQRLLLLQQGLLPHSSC

[11] = target: Tyrosine-protein kinase receptor UFO (Homo sapiens) (UniProt P30530); details: dose 100.0 nM, time 1.0 hrs
Sequence of Tyrosine-protein kinase receptor UFO (Homo sapiens) (P30530 whole entry): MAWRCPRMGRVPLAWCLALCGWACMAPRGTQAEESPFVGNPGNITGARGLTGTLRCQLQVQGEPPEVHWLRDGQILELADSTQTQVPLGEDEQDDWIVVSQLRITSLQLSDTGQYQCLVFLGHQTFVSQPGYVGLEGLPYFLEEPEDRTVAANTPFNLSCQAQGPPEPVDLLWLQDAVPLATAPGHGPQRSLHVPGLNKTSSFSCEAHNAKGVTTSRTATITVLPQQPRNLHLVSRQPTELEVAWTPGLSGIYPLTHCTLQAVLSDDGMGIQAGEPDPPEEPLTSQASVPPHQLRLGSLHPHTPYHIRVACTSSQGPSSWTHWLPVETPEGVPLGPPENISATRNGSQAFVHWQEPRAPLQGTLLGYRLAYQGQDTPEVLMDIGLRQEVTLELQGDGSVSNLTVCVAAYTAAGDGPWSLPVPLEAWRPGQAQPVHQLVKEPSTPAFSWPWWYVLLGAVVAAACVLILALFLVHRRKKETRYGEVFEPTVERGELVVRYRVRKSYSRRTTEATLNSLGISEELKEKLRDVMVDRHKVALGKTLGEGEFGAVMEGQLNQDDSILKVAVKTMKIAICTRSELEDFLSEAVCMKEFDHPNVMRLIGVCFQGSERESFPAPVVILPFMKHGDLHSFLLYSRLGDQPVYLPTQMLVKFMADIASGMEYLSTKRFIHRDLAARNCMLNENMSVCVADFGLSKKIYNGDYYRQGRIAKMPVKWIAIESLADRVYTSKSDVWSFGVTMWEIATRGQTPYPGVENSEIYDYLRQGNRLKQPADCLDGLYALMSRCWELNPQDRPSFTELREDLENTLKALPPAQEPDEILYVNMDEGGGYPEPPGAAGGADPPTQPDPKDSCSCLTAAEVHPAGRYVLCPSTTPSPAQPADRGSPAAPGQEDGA

[12] = test system: HT-29; test: Antiproliferative activity against human HT-29 cells measured after 72 hrs by MTT assay; details: HT-29, 72 h
[13] = test system: PC-3; test: Potency index, ratio of foretinib IC50 to test compound IC50 for antiproliferative activity against human PC-3 cells; format: functional
[14] = target: T2, Receptor-type tyrosine-protein kinase FLT3 (Homo sapiens, UniProt P36888); test: Inhibition of human N-terminal GST-fused FLT3 cytoplasmic domain (564 to 993 residues) expressed in baculovirus expression system using Srctide as substrate measured after 1 hr by mobility shift assay
T2 sequence (P36888 whole entry): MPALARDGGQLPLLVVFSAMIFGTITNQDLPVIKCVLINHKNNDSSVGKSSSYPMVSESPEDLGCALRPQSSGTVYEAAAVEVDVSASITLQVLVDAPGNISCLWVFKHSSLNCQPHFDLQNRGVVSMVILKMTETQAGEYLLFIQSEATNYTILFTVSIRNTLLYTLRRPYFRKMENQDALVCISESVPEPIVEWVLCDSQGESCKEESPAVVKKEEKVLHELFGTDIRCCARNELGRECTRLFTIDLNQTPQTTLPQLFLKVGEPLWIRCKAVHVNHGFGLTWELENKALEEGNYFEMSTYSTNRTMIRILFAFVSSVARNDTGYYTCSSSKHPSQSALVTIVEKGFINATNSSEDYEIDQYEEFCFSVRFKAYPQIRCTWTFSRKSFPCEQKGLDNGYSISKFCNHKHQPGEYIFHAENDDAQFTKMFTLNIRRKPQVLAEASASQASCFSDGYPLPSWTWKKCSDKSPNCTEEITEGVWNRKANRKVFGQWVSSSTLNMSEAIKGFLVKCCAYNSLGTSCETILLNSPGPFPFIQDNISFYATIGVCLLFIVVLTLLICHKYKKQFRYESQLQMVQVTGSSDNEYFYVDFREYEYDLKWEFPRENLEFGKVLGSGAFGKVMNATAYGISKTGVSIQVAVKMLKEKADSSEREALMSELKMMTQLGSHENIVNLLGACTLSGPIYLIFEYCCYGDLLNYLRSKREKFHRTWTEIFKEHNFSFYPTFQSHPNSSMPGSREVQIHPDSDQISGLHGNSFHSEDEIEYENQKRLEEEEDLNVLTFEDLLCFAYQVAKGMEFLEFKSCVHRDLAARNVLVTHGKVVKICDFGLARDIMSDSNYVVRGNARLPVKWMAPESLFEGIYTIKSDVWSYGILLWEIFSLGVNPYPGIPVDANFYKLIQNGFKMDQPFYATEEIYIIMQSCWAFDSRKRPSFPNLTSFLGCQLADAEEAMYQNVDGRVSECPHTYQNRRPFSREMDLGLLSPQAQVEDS

[15] = target: Macrophage-stimulating protein receptor (Homo sapiens) (UniProt Q04912); test: Inhibition of Ron (unknown origin) at 200 nM relative to control
Sequence of Macrophage-stimulating protein receptor (Homo sapiens) (Q04912 25-304 limits assumed): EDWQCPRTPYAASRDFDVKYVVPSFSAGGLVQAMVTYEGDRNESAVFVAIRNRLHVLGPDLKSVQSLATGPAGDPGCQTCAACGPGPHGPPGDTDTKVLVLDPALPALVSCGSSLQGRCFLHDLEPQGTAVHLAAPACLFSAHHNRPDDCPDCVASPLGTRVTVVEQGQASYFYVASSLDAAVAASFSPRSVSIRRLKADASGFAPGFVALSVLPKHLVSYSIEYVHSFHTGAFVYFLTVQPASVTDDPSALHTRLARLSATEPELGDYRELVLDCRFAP
Sequence of Macrophage-stimulating protein receptor (Homo sapiens) (Q04912 310-1400 limits assumed): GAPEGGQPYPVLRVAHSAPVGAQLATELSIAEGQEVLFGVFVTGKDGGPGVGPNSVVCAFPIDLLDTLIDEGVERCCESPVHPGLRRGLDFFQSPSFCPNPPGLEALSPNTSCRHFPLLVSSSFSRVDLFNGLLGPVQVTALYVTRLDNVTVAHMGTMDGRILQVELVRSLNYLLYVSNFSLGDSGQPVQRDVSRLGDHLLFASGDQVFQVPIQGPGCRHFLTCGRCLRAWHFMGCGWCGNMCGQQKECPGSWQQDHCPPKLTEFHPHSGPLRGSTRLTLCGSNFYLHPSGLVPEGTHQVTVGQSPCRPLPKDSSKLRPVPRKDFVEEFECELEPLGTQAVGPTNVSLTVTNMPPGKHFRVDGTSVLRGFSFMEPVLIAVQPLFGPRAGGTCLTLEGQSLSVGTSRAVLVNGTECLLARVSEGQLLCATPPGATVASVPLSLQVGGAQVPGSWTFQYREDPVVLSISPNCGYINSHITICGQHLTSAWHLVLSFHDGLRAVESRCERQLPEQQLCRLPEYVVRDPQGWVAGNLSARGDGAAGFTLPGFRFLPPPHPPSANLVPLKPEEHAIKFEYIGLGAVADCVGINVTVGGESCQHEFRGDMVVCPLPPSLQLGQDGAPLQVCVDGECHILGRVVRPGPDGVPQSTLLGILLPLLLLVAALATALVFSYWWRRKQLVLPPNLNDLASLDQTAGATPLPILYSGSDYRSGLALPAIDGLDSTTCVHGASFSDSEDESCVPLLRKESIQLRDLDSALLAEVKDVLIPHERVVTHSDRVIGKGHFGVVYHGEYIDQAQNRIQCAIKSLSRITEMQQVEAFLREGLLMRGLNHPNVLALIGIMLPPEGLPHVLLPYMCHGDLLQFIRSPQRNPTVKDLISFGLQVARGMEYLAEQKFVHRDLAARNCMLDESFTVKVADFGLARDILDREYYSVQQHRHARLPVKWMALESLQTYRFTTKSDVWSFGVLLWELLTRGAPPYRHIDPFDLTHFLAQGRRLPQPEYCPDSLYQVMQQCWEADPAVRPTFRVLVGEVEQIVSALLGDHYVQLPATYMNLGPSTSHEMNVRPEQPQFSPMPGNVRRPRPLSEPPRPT

Sequence of Aurora kinase B (Homo sapiens) (Q96GD4 whole entry): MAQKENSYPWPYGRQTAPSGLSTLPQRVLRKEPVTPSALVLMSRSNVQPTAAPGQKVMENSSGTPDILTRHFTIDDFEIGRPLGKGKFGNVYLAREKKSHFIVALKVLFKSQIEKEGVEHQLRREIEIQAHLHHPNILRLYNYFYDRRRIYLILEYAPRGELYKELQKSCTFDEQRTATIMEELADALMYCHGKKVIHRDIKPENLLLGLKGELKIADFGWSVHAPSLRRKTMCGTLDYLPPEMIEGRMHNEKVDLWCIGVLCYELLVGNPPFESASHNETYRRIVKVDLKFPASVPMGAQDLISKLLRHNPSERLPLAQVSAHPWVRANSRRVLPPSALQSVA

IC50 [1]: 107 nM
inhibition [2]: > 80%
inhibition [3]: > 80%
IC50 [4]: 53 nM
IC50 [6]: 99 nM
IC50 [7]: 590 nM
IC50 [9]: > 200 nM
IC50 [10]: > 200 nM
inhibition [11]: 93.7%
IC50 [12]: 1030 nM
IC50 [14]: 103 nM
inhibition [15]: > 80%
Compound: COc1cc2c(Oc3ccc(NC(=O)C4(c5nnc(-c6ccc(F)cc6)o5)CC4)cc3F)ccnc2cc1OCCCN1CCCCC1
Ratio IC50 [5]: 2
Ratio IC50 [8]: 1.57
Ratio IC50 [13]: 1.54
